According to EP0514268A1, “Substituted amino acid azetidinyl pyridone derivatives, their preparation and use as medicines” (LABORATORIOS DEL DR. ESTEVE, S.A., priority 1991, dated 1992):
Read-outs that look alike come from different tables or passages of the source.

Experiments:
[1] = system: Citr. freundii ATCC 11606; assay: Antimicrobial activity, agar dilution; format: cell-based, Citrobacter freundii; conditions: Agar Dextrose dilutions, 37°C, 20 heures; for MIC: Citrobacter freundii, ATCC11606, 20 h, read-out: Activité pharmacologique antimicrobienne (concentrations)
Source text: (§1) L'activité pharmacologique antimicrobienne de ces composés a été étudiée selon les références exposées ci-dessous.
(§2) Activité pharmacologique antimicrobienne : G.L. Daquet et Y.A. Chabbect, techniques en bactériologie, Vol. 3, Flammarion Médecine-Sciences, Paris 1972, et W.B. Hugo et A.D. Rusell, Pharmaceutical Microbiology, Blackwell Scientific Publications, London, 1977.
(§3) Milieu de culture et solvant : Agar d'antibiotiques n° 1 (Oxoid CM 327) Bouillon de triptone-soja (Oxoid CM 129) Solution Physiologique Ringer 1/4 (Oxoid BR 52) Agar Dextrose (BBL 11165)
(§4) Microorganismes : "Bacillus subtilis" ATCC 6633 "Citrobacter freundii" ATCC 112606 "Enterobacter aerogenes" ATCC 15038 "Enterobacter cloacae" ATCC 23355 "Bacillus cereus" ATCC 1178 "Escherichia coli" ATCC 10799 "Escherichia coli" ATCC 23559 "Klebsiella pneumoniae" ATCC 10031 "Proteus vulgaris" ATCC 8427 "Morg. morganii" ATCC 8019 "Pseudomonas aeruginosa" ATCC 9721 "Pseudomonas aeruginosa" ATCC 10145 "Salmonella typhimurium" ATCC 14028 "Salmonella typhimurium" ATCC 6539 "Serratia marcescens" ATCC 13880 "Shigella flexnerii" ATCC 12022 "Staphylococcusepidermis" ATCC 155-1 "Staphylococcus aureus" ATCC 25178 "Streptococcus faecalis" ATCC 10541.
(§5) Chacun des microorganismes est ensemencé par strie dans des tubes d'Agar d'antibiotiques n° 1, et mis en incubation pendant 20 heures à 37°C. Ensuite, on prend une anse de culture, on ensemence dans un bouillon de Triptone-soja et on incube pendant 20 heures à 37°C. On dilue à 1/4 la culture obtenue avec une solution physiologique Ringer, de façon à obtenir une suspension normalisée de […] pour chaque organisme.
(§6) A partir d'une solution de 100 µg/ml, chaque produit est dilué dans l'Agar Dextrose (préalablement fondu et maintenu à 50°C) par dilutions successives de façon à obtenir les concentrations suivantes : 64-32-16-8-4-2-1-0,5-0,25-0,125 µg de dérivé/ml du milieu.
(§7) Postérieurement, chaque concentration de chaque produit est répartie dans des boîtes de Petri de 10 cm de diamètre, à raison de 10 ml de milieu par boîte et autant de boîtes que de microorganismes à tester.
(§8) Une fois le milieu refroidi, les boîtes sont ensemencées avec les inoculations à raison de 0,4 ml d'inoculation par boîte. On les étend avec une anse de Driglasky et on recueille le surnageant. Les boîtes ensemencées sont incubées à 37°C pendant 20 heures.
(§9) Les résultats obtenus sont décrits dans les tableaux suivants. Les concentrations sont données en µg/ml.

Staph. aureus ATCC 25178 = assay: Antimicrobial activity, agar dilution; format: cell-based, Staphylococcus aureus; conditions: Agar Dextrose dilutions, 37°C, 20 heures; for MIC: Staphylococcus aureus, ATCC25178, 20 h, read-out: Activité pharmacologique antimicrobienne (concentrations)
Source text: as §1, §2, §3, §4, §5, §6, §7, §8, §9

[2] = system: Sal. typhimurium ATCC 14028; assay: Antimicrobial activity, agar dilution; format: cell-based, Salmonella typhimurium; conditions: Agar Dextrose dilutions, 37°C, 20 heures; for MIC: Salmonella enterica, 20 h, read-out: Activité pharmacologique antimicrobienne (concentrations)
Source text: as §1, §2, §3, §4, §5, §6, §7, §8, §9

Ent. cloacae ATCC 23355 = assay: Antimicrobial activity, agar dilution; format: cell-based, Enterobacter cloacae; conditions: Agar Dextrose dilutions, 37°C, 20 heures
Source text: as §1, §2, §3, §4, §5, §6, §7, §8, §9

[3] = system: Ent. aerogenes ATCC 15038; assay: Antimicrobial activity, agar dilution; format: cell-based, Enterobacter aerogenes; conditions: Klebsiella aerogenes, ATCC15038, 20 h, Agar Dextrose dilutions, 37°C, 20 heures, read-out: Activité pharmacologique antimicrobienne (concentrations)
Source text: as §1, §2, §3, §4, §5, §6, §7, §8, §9

[4] = Solubility in water and at pH 7.4; format: physicochemical
Source text: Un grand nombre des composés de l'invention manifestent une augmentation de la solubilité dans l'eau ainsi que de la solubilité à pH 7,4 lorsqu'on compare avec les composés de référence. L'augmentation de solubilité au pH physiologique peut favoriser l'absorption du produit et la solubilité élevée dans l'eau permet l'administration du composé par voie parentérale.

[5] = system: Kleb. pneumoniae ATCC 10031; assay: Antimicrobial activity, agar dilution; format: cell-based, Klebsiella pneumoniae; conditions: Agar Dextrose dilutions, 37°C, 20 heures
Source text: as §1, §2, §3, §4, §5, §6, §7, §8, §9

[6] = system: Staph. epidermidis ATCC 155-1; assay: Antimicrobial activity, agar dilution; format: cell-based; conditions: Agar Dextrose dilutions, 37°C, 20 heures; for MIC: Staphylococcus epidermidis, ATCC155, 20 h, read-out: Activité pharmacologique antimicrobienne (concentrations)
Source text: as §1, §2, §3, §4, §5, §6, §7, §8, §9

Morg. morganii ATCC 8019 = assay: Antimicrobial activity, agar dilution; format: cell-based; conditions: Agar Dextrose dilutions, 37°C, 20 heures
Source text: as §1, §2, §3, §4, §5, §6, §7, §8, §9

[7] = system: Escherichia coli ATCC 23559; assay: Antimicrobial activity, agar dilution; format: cell-based; conditions: Agar Dextrose dilutions, 37°C, 20 heures
Source text: as §1, §2, §3, §4, §5, §6, §7, §8, §9

Sal. typhi ATCC 6539 = assay: Antimicrobial activity, agar dilution; format: cell-based; conditions: Salmonella enterica, 20 h, read-out: Activité pharmacologique antimicrobienne (concentrations)
Source text: as §1, §2, §3, §4, §5, §6, §7, §8, §9

[8] = system: Bacillus cereus ATCC 11778; assay: Antimicrobial activity, agar dilution; format: cell-based; conditions: Agar Dextrose dilutions, 37°C, 20 heures; for MIC: Bacillus cereus, ATCC11778, 20 h, read-out: Activité pharmacologique antimicrobienne (concentrations)
Source text: as §1, §2, §3, §4, §5, §6, §7, §8, §9

[9] = system: Proteus vulgaris ATCC 8427; assay: Antimicrobial activity, agar dilution; format: cell-based; conditions: Agar Dextrose dilutions, 37°C, 20 heures; for MIC: Proteus vulgaris, ATCC8427, 20 h, read-out: Activité pharmacologique antimicrobienne (concentrations)
Source text: as §1, §2, §3, §4, §5, §6, §7, §8, §9

[10] = system: Bacillus subtilis ATCC 6633; assay: Antimicrobial activity, agar dilution; format: cell-based; conditions: ATCC6633, 20 h, Agar Dextrose dilutions, 37°C, 20 heures, read-out: Activité pharmacologique antimicrobienne (concentrations)
Source text: as §1, §2, §3, §4, §5, §6, §7, §8, §9

[11] = system: Ps. aeruginosa ATCC 10145; assay: Antimicrobial activity, agar dilution; format: cell-based; conditions: Pseudomonas aeruginosa, ATCC10145, 20 h, Agar Dextrose dilutions, 37°C, 20 heures, read-out: Activité pharmacologique antimicrobienne (concentrations)
Source text: as §1, §2, §3, §4, §5, §6, §7, §8, §9

Ps. aeruginosa ATCC 9721 = assay: Antimicrobial activity, agar dilution; format: cell-based; conditions: Pseudomonas aeruginosa, ATCC9721, 20 h, Agar Dextrose dilutions, 37°C, 20 heures, read-out: Activité pharmacologique antimicrobienne (concentrations)
Source text: as §1, §2, §3, §4, §5, §6, §7, §8, §9

[12] = system: Escherichia coli ATCC 10799; assay: Antimicrobial activity, agar dilution; format: cell-based; conditions: Agar Dextrose dilutions, 37°C, 20 heures; for MIC: Escherichia coli, ATCC10799, 20 h, read-out: Activité pharmacologique antimicrobienne (concentrations)
Source text: as §1, §2, §3, §4, §5, §6, §7, §8, §9

[13] = system: Shigella flexnerii ATCC 12022; assay: Antimicrobial activity, agar dilution; format: cell-based; conditions: ATCC12022, 20 h, Agar Dextrose dilutions, 37°C, 20 heures, read-out: Activité pharmacologique antimicrobienne (concentrations)
Source text: as §1, §2, §3, §4, §5, §6, §7, §8, §9

[14] = system: Strep. faecalis ATCC 10541; assay: Antimicrobial activity, agar dilution; format: cell-based, Streptococcus faecalis; conditions: Agar Dextrose dilutions, 37°C, 20 heures
Source text: as §1, §2, §3, §4, §5, §6, §7, §8, §9

[15] = system: Serr. marcescens ATCC 13880; assay: Antimicrobial activity, agar dilution; format: cell-based, Serratia marcescens; conditions: Agar Dextrose dilutions, 37°C, 20 heures
Source text: as §1, §2, §3, §4, §5, §6, §7, §8, §9

SMILES: C[C@H](N)C(=O)N[C@@H]1CN(c2nc3c(cc2F)c(=O)c(C(=O)O)cn3C2CC2)[C@H]1C [Exemple 4aA, chlorhydratede l'acide 7-[(2S,3R)-2-méthyl-3-Ala-amino-1-azétidinyl]-1-cyclopropyl-6-fluoro-1,4-dihydro-4-oxo-1,8-naphtyridine-3-carboxylique]
- Activité pharmacologique antimicrobienne (concentrations) [1]: 0,5 µg/ml
- MIC [1]: 0.25 µg/mL
- Activité pharmacologique antimicrobienne (concentrations) (Staph. aureus ATCC 25178): 0,25 µg/ml
- MIC (Staph. aureus ATCC 25178): 0.5 µg/mL
- Activité pharmacologique antimicrobienne (concentrations) [2]: 1 µg/ml
- MIC [2]: 0.5 µg/mL
- Activité pharmacologique antimicrobienne (concentrations) (Ent. cloacae ATCC 23355): 0,12 µg/ml
- Activité pharmacologique antimicrobienne (concentrations) (Ent. cloacae ATCC 23355; listed as 4aa): 0,25 µg/ml
- MIC [3]: 0.5 µg/mL
- solubility ([4]; pH 7,4, read-out: Solubilité pH 7,4): > 500 µg/mL
- solubility ([4]; water, read-out: Solubilité dans l'eau): > 500 µg/mL
- Activité pharmacologique antimicrobienne (concentrations) [5]: 0,06 µg/ml
- Activité pharmacologique antimicrobienne (concentrations) ([5]; listed as 4aa): 0,5 µg/ml
- Activité pharmacologique antimicrobienne (concentrations) [6]: 1 µg/ml
- MIC [6]: 0.5 µg/mL
- Activité pharmacologique antimicrobienne (concentrations) (Morg. morganii ATCC 8019): 0,5 µg/ml
- Activité pharmacologique antimicrobienne (concentrations) (Morg. morganii ATCC 8019; listed as 4aa): 2 µg/ml
- Activité pharmacologique antimicrobienne (concentrations) [7]: 0,12 µg/ml
- Activité pharmacologique antimicrobienne (concentrations) ([7]; listed as 4aa): 0,25 µg/ml
- MIC (Sal. typhi ATCC 6539): 0.5 µg/mL
- Activité pharmacologique antimicrobienne (concentrations) [8]: 0,5 µg/ml
- MIC [8]: 1 µg/mL
- Activité pharmacologique antimicrobienne (concentrations) [9]: 2 µg/ml
- MIC [9]: 1 µg/mL
- MIC [10]: 0.12 µg/mL
- MIC [11]: 8 µg/mL
- MIC (Ps. aeruginosa ATCC 9721): 4 µg/mL
- Activité pharmacologique antimicrobienne (concentrations) [12]: 1 µg/ml
- MIC [12]: 0.5 µg/mL
- MIC [13]: 0.12 µg/mL
- Activité pharmacologique antimicrobienne (concentrations) [14]: 8 µg/ml
- Activité pharmacologique antimicrobienne (concentrations) ([14]; listed as 4aa): 1 µg/ml
- Activité pharmacologique antimicrobienne (concentrations) [15]: 1 µg/ml
- Activité pharmacologique antimicrobienne (concentrations) ([15]; listed as 4aa): 4 µg/ml

SMILES: CC(C)C[C@H](N)C(=O)NC1CN(c2nc3c(cc2F)c(=O)c(C(=O)O)cn3-c2ccc(F)cc2F)C1 [Exemple 4bL, chlorhydratede l'acide 7-(3-Leu-amino-1-azétidinyl)-1-(2,4-difluorophényl)-6-fluoro-1,4-dihydro-4-oxo-1,8-naphtyridine-3-carboxylique]
- MIC [1]: 1 µg/mL
- MIC (Staph. aureus ATCC 25178): 4 µg/mL
- MIC [2]: 1 µg/mL
- MIC (Ent. cloacae ATCC 23355; Enterobacter cloacae, ATCC23355, 20 h, read-out: Activité pharmacologique antimicrobienne (concentrations)): 0.5 µg/mL
- MIC [3]: 0.5 µg/mL
- solubility ([4]; pH 7): 23.1 µg/mL
- solubility ([4]; water): > 500 µg/mL
- MIC ([5]; Klebsiella pneumoniae, ATCC10031, 20 h, read-out: Activité pharmacologique antimicrobienne (concentrations)): 0.12 µg/mL
- MIC [6]: 1 µg/mL
- MIC (Morg. morganii ATCC 8019; Morganella morganii, ATCC8019, 20 h, read-out: Activité pharmacologique antimicrobienne (concentrations)): 2 µg/mL
- MIC ([7]; Escherichia coli, ATCC23559, 20 h, read-out: Activité pharmacologique antimicrobienne (concentrations)): 0.25 µg/mL
- MIC (Sal. typhi ATCC 6539): 1 µg/mL
- MIC [8]: 0.5 µg/mL
- MIC [9]: 2 µg/mL
- MIC [10]: 0.25 µg/mL
- MIC [11]: 8 µg/mL
- MIC (Ps. aeruginosa ATCC 9721): 4 µg/mL
- MIC [12]: 1 µg/mL
- MIC [13]: 0.25 µg/mL
- MIC ([14]; Enterococcus faecalis, ATCC10541, 20 h, read-out: Activité pharmacologique antimicrobienne (concentrations)): 1 µg/mL
- MIC ([15]; Serratia marcescens, ATCC13880, 20 h, read-out: Activité pharmacologique antimicrobienne (concentrations)): 2 µg/mL
